In US20040121965A1, “Method of treating resistant tumors” (Wyeth Holdings Corporation, priority 2002, published 2004):
Like-named read-outs stand apart in the source and are kept apart here.

Assays:
KB-3-1 = assay: Cell survival assay (SRB), KB-3-1; format: cell-based, human; settings: Homo sapiens
Outline: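 Cells were exposed in duplicate to serially diluted compound for 3 days, then fixed with 10% TCA (final) for 1 hr at 4 °C, stained 10 min with 0.04% SRB in 1% acetic acid, dissolved in 10 mM Trizma Base and read by absorbance. IC50 is the concentration inhibiting 50% of growth.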

[1] = system: Human Melanoma Carcinoma Lox; settings: staged LOX xenograft; at MTD ('<': MTD not achieved); days 11-15
Method: 2.4. Growth of Tumors in Nude Mice. […] In these experiments, xenografts are implanted subcutaneously into the flanks of nude mice. […] Relative tumor mass compared to controls are assessed during the 21-day post-staging period.
Groups of 5 female nu/nu mice are injected with 1.5×10^6 KB-3-1 (A) or Lox cells (B). […] Relative tumor growth is determined during the experiment and % T/C calculated. Statistical analyses are Student's t-test of treated time points vs. vehicle (*, P<0.05; **, P<0.01)

KB-8-5 (MDR1+) = assay: Cell survival assay (SRB), KB-8-5 (MDR1+); settings: for IC50: Homo sapiens, MDR1, read-out: In vitro IC50 (nM) KB85
KB-V1 (MDR1++) = assay: Cell survival assay (SRB), KB-V1 (MDR1++); settings: for IC50: Homo sapiens, read-out: In vitro IC50 (nM) KBV1
[2] = KB 3-1, 72 h, amount of drug needed to kill 50% of cells after three days continuous exposure, Table 11, read-out: IC50 in parental cell line KB-3-1
[3] = KB 3-1, KB-3-1 cells (paclitaxel-sensitive parent), read-out: In vitro IC50 (nM) KB-3-1

SMILES | IC50 (KB-3-1; [2]) [nM] | IC50 (KB-3-1; [3]) [nM] | Activity in nude mice animal model (% T/C @ MTD on days 11-15) LOX [1] | Ratio KB85/KB (KB-8-5 (MDR1+)) | IC50 (KB-8-5 (MDR1+)) [nM] | Ratio KBV1/KB (KB-V1 (MDR1++)) | IC50 (KB-V1 (MDR1++)) [nM]
CN[C@H](C(=O)N[C@H](C(=O)N(C)[C@H](/C=C(\C)C(=O)O)C(C)C)C(C)(C)SC)C(C)(C)c1ccccc1 [Example 80, (E,4S)-2,5-dimethyl-4-{methyl[(2R)-3-methyl-2-{[(2S)-3-methyl-2-(methylamino)-3-phenylbutanoyl]amino}-3-(methylsulfanyl)butanoyl]amino}-2-hexenoic Acid] | 2.7 | 2.7 | 8^4% | 2.6 | 7.1 | 112.2 | 303
CN[C@H](C(=O)N[C@H](C(=O)N(C)[C@H](/C=C(\C)C(=O)O)C(C)C)C(C)(C)C)C(C)(C)c1cccc(C(F)(F)F)c1 [Example 62, N,β,β-Trimethyl-3-(trifluoromethyl)-L-phenylalanyl-N^1-[(1S,2E)-3-carboxy-1-isopropyl-2-butenyl]-N^1,3-dimethyl-L-valinamide] | 0.7 | 0.647 | 2% | 2.6 | 1.7 | 66.0 | 42.7
CN[C@H](C(=O)N[C@H](C(=O)N(C)[C@H](/C=C(\C)C(=O)O)C(C)C)C(C)(C)C)C(C)(C)C1CCCCC1 [Example 70, 3-Cyclohexyl-N-methyl-L-valyl-N-1-[(1S,2E)-3-carboxy-1-isopropyl-2-butenyl]-N-1,3-dimethyl-L-valinamide] | 3.7 | 3.7 | 4% | 1.5 | 5.6 | 40.9 | 151
CN[C@H](C(=O)N[C@H](C(=O)N(C)[C@H](/C=C(\C)C(=O)O)C(C)C)C(C)(C)C)C(C)(C)c1cccs1 [Example 20, N-Methyl-3-(2-thienyl)-L-valyl-N^1-[(1S,2E)-3-carboxy-1-isopropyl-2-butenyl]-N^1,3-dimethyl-L-valinamide] | 2 | 2 | 3% | 2.0 | 3.9 | 80.9 | 162
CC[C@H](C)[C@H](NC(=O)[C@@H](NC)C(C)(C)c1ccccc1)C(=O)N(C)[C@H](/C=C(\C)C(=O)O)C(C)C.O=C(O)C(F)(F)F [Example 106, N,β,β-trimethyl-L-phenylalanyl-N^1-[(1S,2E)-3-carboxy-1-isopropyl-2-butenyl]-N^1-methyl-L-isoleucinamide Trifluoroacetic Acid] | 15.6 | 16 | <47^4% | 2.2 | 34 | 42.3 | 660
C/C(=C\[C@H](C(C)C)N(C)C(=O)[C@@H](NC(=O)[C@@H](N(C)C)C(C)(C)c1ccccc1)C(C)(C)C)C(=O)O [Example 52, N,N,β, β-Tetramethyl-L-phenylalanyl-N^1-[(1S,2E)-3-carboxy-1-isopropyl-2-butenyl]-N^1,3-dimethyl-L-valinamide] | 1.6 | 1.55 | 1% | 2.4 | 3.7 | 74.6 | 116
CN[C@@H](C(=O)N[C@H](C(=O)N(C)[C@H](/C=C(\C)C(=O)O)C(C)C)C(C)(C)C)C(C)(C)c1cc(F)cc(F)c1 [Example 65, 3,5-Difluoro-N,β,β-trimethyl-D-phenylalanyl-N^1-[(1S,2E)-3-carboxy-1-isopropylbut-2-enyl]-N^1,3-dimethyl-L-valinamide] | 2 | 2 | 8% | 1.5 | 2.9 | 38.8 | 77.6
